{
  "source": "patent US6372208B1",
  "about": "“Method of reducing an immune response to a recombinant virus” (The Trustees of the University of Pennsylvania, priority 1996, dated 2002)",
  "assay_type_in_all_cases": "in vivo, C57BL/6 mice",
  "key": {"[1]": {"tested_on": "recombinant adenoviruses H5.010CBALP and H5.010CMVlacZ", "experiment": "Lung-directed adenovirus gene transfer and readministration, transgene expression by histochemistry (Example 2)", "protocol": "Female C57BL/6 mice (6˜8 week old) were infected with suspensions of H5.010CBALP (1×10^9 pfu in 50 μl of PBS) via the trachea at day 0 and similarly with H5.010CMVlacZ at day 28. One group of such mice was used as a control. Another group of mice were acutely depleted of CD4^+ cells by i.p. injection of antibody to CD4^+ cells (GK1.5; ATCC No. TIB207, 1:10 dilution of ascites) at the time of the initial gene therapy (days −3, 0, and +3). A third group of mice was injected with IL-12 (1 μg intratracheal or 2 μg, i.p. injections) at the time of the first administration of virus (days 0 and +1). A fourth group of mice was injected with gamma interferon. (1 μg intratracheal or 2 μg, i.p. injections) at the time of the first administration of virus (days 0 and +1).\nWhen mice were subsequently euthanized and necropsied at days 3, 28, or 31, lung tissues were prepared for cryosections, while bronchial alveolar lavage (BAL) and mediastinal lymph nodes (MLN) were harvested for immunological assays.\nThe lung tissues were evaluated for ALP expression at day 3 and day 28 by histochemical staining following the procedures of Yang I, cited above. β-galactosidase expression was assayed at day 31 by X-gal histochemical staining. The results described below were obtained from the alkaline phosphatase histochemical stains (magnification ×100) or β-galactosidase X-gal stains (magnification ×100)."}, "[2]": {"tested_on": "recombinant adenoviruses H5.010CMVlacZ and H5.010CBALP", "experiment": "Tail vein adenovirus gene transfer to mouse liver and readministration (Example 4)", "details": "liver, second virus day 28, read day 31", "protocol": "Recombinant virus (H5.010CMVLacZ or H5.010CBALP) was inactivated with ultraviolet light in the presence of 8-methoxypsoralen. Briefly, purified virus was resuspended in 0.33 mg/ml of 8-methoxypsoralen solution and exposed to a 365 nm UV light source on ice at 4 cm from the lamp filter for 30 min. The virus was then passed over a Sephadex G-50 column equilibrated with PBS. […] Suspensions of the viruses (2×10^9 pfu in 100 μl of PBS) were infused into the tail vein of 6 to 8 week old female mice as etailed in the following experiments. Each experiment was performed with a minimum of three mice in which transgene expression was quantified in a section of each of 5 lobes. The minimum analysis was 15 sections per experimental condition.\ne. C57BL/6 mice were inoculated i.p. with 0.5 ml aliquots of 1:10 dilution of mouse ascites fluid containing the GK1.5 (anti-CD4 Mab, ATCC TIB207) at days −3, 0 and +3 as described in Example 2. This was equivalent to 100 μg of purified monoclonal antibody per injection. These CD4^+ cell-depleted mice were infected with H5.010CMVlacZ at day 0 and H5.010CBALP at day 28 (“CD4Ab mice”); and\nf. […]\nMice from each group were subsequently euthanized and liver tissues evaluated for lacZ expression by X-gal histochemistry (magnification ×100) at day 3 and day 28; and for ALP expression by histochemical staining at day 31 (magnification ×100). […]"}, "H5.010CMVlacZ virus": {"tested_on": "H5.010CMVlacZ virus", "experiment": "Adenovirus-specific IgG1 and IgG2a in serum by ELISA", "details": "28 days after infection", "protocol": "A. Serum samples obtained from the C57BL/6 mice (“B6”) and IL-12 treated C57BL/6 (“B6+IL12”) mice of Example 5 were tested 28 days after infection for adenovirus-specific IgG1 and IgG2a antibody isotypes.\nA solid phase enzyme linked immunosorbent assay (ELISA) using purified H5.010CMVlacZ virus as antigen was performed. Immunolon-2-U microtiter plates (Fisher) were coated with 200 ng/well of viral antigen in […] of PBS for 6 hours at 37° C., washed three times in PBS, and blocked in PBS/1% BSA overnight at 4° C. The following day, 4-fold serial diluted serum samples were added to antigen-coated plates and incubated for 4 hours at 37° C. Plates were washed three times in PBS/1% BSA and incubated with goat anti-mouse IgG1-biotin or goat anti-mouse IgG2a-biotin (CALTAG Laboratories, San Francisco, Calif.) at 1:5000 dilution for 2 hours at 37° C. Plates were washed as above and Avidin-ALP (Sigma) was added to each well at 1:5000 dilution for 1 hour at 37° C. Wells were again washed as above and PNPP substrate was added. Optical densities were read on a Biorad model 450 microplate reader."}, "[3]": {"tested_on": "recombinant adenoviruses H5.010CBALP and H5.010CMVlacZ", "experiment": "Liver-directed adenovirus gene transfer and readministration (Example 3)", "protocol": "Experiments substantially identical to those described in Example 2 above were conducted in which viral vectors were administered into the blood for introduction of the transgene into the liver (rather than intratracheal delivery into the lung).\nFemale C57BL/6 mice (6-8 weeks old) were injected with suspensions of H5.010CBALP (1×10^9 pfu in 50 μl of PBS) i.p. at day 0 and similarly with H5.010CMVlacZ at day 28. One group of such mice was used as a control. Another group of mice was acutely depleted of CD4^+ cells by i.p. injection of antibody to CD4^+ cells (GK1.5; ATCC No. TIB207, 1:10 dilution of ascites) at the time of the initial gene therapy (days −3, 0, and +3). A third group of mice was injected with IL-12 (2 μg, i.p. injections) at the time of the first administration of virus (days 0 and +1). A fourth group of mice was injected with gamma interferon (2 μg, i.p. injections) at the time of the first administration of virus (days 0 and +1) .\nWhen mice were subsequently euthanized and necropsied at days 3, 28, or 31, liver tissues were prepared for cryosections according to the procedures used above for lung tissue in Example 2.\nThe cryosection results were substantially similar for liver-directed gene therapy according to this method as for the lung-directed therapy of Example 2 above. The results described below were obtained from the alkaline phosphatase histochemical stains (magnification ×100) or β-galactosidase X-gal stains (magnification ×100)."}},
  "data": [
    {"substance": "interleukin-12 [IL-12]", "values": [
      {"measurement": "transgene expression after first administration of virus (ALP)", "setting": "[1]; lung, intratracheal, days 3 and 28", "result": "diminished after about one month"},
      {"measurement": "gene transfer upon second administration of virus (lacZ)", "setting": "[1]; lung, readministered day 28, read day 31", "result": "high level gene transfer to airway epithelial cells was achieved"},
      {"measurement": "inflammation and transgene persistence following a second administration of virus", "setting": "[1]; treatment at the time of intratracheal instillation of virus", "result": "did not enhance inflammation or diminish transgene persistence"},
      {"measurement": "readministration of virus (gene transfer)", "setting": "[2]", "result": "insufficient to allow efficient gene transfer upon readministration of virus"},
      {"measurement": "anti-viral IgG1 in serum", "setting": "H5.010CMVlacZ virus", "result": "less anti-viral IgG1"},
      {"measurement": "anti-viral IgG2a in serum", "setting": "H5.010CMVlacZ virus", "result": "increased production of IgG2a"},
      {"measurement": "transgene expression after first administration of virus (ALP)", "setting": "[3]; liver, days 3 and 28", "result": "diminished after about one month"},
      {"measurement": "gene transfer upon second administration of virus (lacZ)", "setting": "[3]; liver, readministered day 28, read day 31", "result": "some gene transfer to the liver via the blood was achieved"},
      {"measurement": "neutralizing antibodies", "setting": "[3]; liver-directed gene therapy, Example 3", "result": "the level of neutralizing antibody was reduced"}
    ]}
  ]
}
